Results as given in US20240174624A1, “CHIRAL N-(1,3,4-OXADIAZOLE-2-YL)PHENYL CARBOXYLIC ACID AMIDES AND THEIR USE AS HERBICIDES” (Bayer Aktiengesellschaft, priority 2021, published 2024).

Legend:
STEME [1] = test: Post-emergence herbicidal action; type: in vivo, Stellaria media; conditions: 5 g a.i./ha, comparative experiment
Procedure: (§1) Seeds of monocotyledonous and dicotyledonous weed and crop plants are laid out in sandy loam soil in wood-fibre pots, covered with soil and cultivated in a greenhouse under good growth conditions. 2 to 3 weeks after sowing, the test plants are treated at the one-leaf stage. The compounds of the invention, formulated in the form of wettable powders (WP) or as emulsion concentrates (EC), are then sprayed onto the green parts of the plants in the form of an aqueous suspension or emulsion at a water application rate equating to 600 to 800 l/ha, with addition of 0.2% wetting agent. After the test plants have been left to stand in the greenhouse under optimal growth conditions for about 3 weeks, the action of the preparations is assessed visually in comparison to untreated controls (herbicidal action in percent (%): 100% activity=the plants have died, 0% activity=like control plants). […] The tables below illustrate, in an illustrative manner, the post-emergence herbicidal action of the compounds of the invention, the herbicidal activity being stated in percent. In the experiments that follow, the herbicidal action of the compounds of the invention and that of the corresponding known racemic compounds closest from WO2012126932 and WO2018202535 were compared under the above-specified conditions by the pre-emergence and post-emergence method. The example numbers given in the tables relate to the compounds disclosed in the respective documents.

CYPES [2] = test: Post-emergence herbicidal action; type: in vivo, Cyperus esculentus; conditions: 20 g a.i./ha, comparative experiment
Procedure: as §1, with “The example numbers given in the tables relate to the compounds disclosed in the respective documents.” left out

SETVI [3] = test: Post-emergence herbicidal action; type: in vivo, Setaria viridis; conditions: for Post-emergence action against SETVI: assessed after about 3 weeks
Procedure: as §1

VERPE [4] = test: Post-emergence herbicidal action; type: in vivo, Veronica persica; conditions: 5 g a.i./ha, comparative experiment
Procedure: as §1

ALOMY = test: Pre-emergence herbicidal action; type: in vivo, Alopecurus myosuroides; conditions: for Herbicidal action against ALOMY: 20 g a.i./ha, comparative experiment; for Pre-emergence action against ALOMY: scored after 3 weeks
Source text: (§2) Seeds of monocotyledonous and dicotyledonous weed plants and crop plants are laid out in sandy loam soil in wood-fibre pots and covered with soil. The compounds of the invention, formulated in the form of wettable powders (WP) or as emulsion concentrates (EC), are then applied to the surface of the covering soil in the form of an aqueous suspension or emulsion at a water application rate equivalent to 600 to 800 l/ha, with addition of 0.2% wetting agent. After the treatment, the pots are placed in a greenhouse and kept under good growth conditions for the trial plants. The damage to the test plants is scored visually after a test period of 3 weeks by comparison with untreated controls (herbicidal activity in percent (%): 100% activity=the plants have died, 0% activity=like control plants). […] The tables below illustrate, in an illustrative manner, the post-emergence herbicidal action of the compounds of the invention, the herbicidal activity being stated in percent. In the experiments that follow, the herbicidal action of the compounds of the invention and that of the corresponding known racemic compounds closest from WO2012126932 and WO2018202535 were compared under the above-specified conditions by the pre-emergence and post-emergence method. The example numbers given in the tables relate to the compounds disclosed in the respective documents.

AVEFA = test: Pre-emergence herbicidal action; type: in vivo, Avena fatua; conditions: for Herbicidal action against AVEFA: 20 g a.i./ha, comparative experiment
Source text: as §2

ZEAMX [5] = test: Pre-emergence damage to crop plants; type: in vivo, Zea mays; conditions: comparative experiment; for Damage to ZEAMX: 80 g a.i./ha
Source text: as §2

ZEAMX [6] = test: Post-emergence damage to crop plants; type: in vivo, Zea mays; conditions: 20 g a.i./ha, comparative experiment
Procedure: as §1

CYPES [7] = test: Pre-emergence herbicidal action; type: in vivo, Cyperus esculentus; conditions: 20 g a.i./ha, comparative experiment
Source text: as §2

SETVI [8] = test: Pre-emergence herbicidal action; type: in vivo, Setaria viridis; conditions: for Pre-emergence action against SETVI: scored after 3 weeks
Source text: as §2

POLCO = test: Pre-emergence herbicidal action; type: in vivo, Polygonum convolvulus
Source text: as §2

STEME [9] = test: Pre-emergence herbicidal action; type: in vivo, Stellaria media; conditions: comparative experiment
Source text: as §2

MATIN [10] = test: Pre-emergence herbicidal action; type: in vivo, Matricaria inodora; conditions: for Pre-emergence action against MATIN: scored after 3 weeks
Source text: as §2

VERPE [11] = test: Pre-emergence herbicidal action; type: in vivo, Veronica persica; conditions: for Herbicidal action against VERPE: comparative experiment
Source text: as §2

DIGSA [12] = test: Post-emergence herbicidal action; type: in vivo, Digitaria sanguinalis; conditions: for Post-emergence action against DIGSA: assessed after about 3 weeks; for Herbicidal action against DIGSA: 20 g a.i./ha, comparative experiment
Procedure: as §1

ECHCG [13] = test: Post-emergence herbicidal action; type: in vivo, Echinochloa crus-galli; conditions: 20 g/ha, assessed after about 3 weeks
Procedure: as §1

LOLRI [14] = test: Post-emergence herbicidal action; type: in vivo, Lolium rigidum; conditions: 20 g a.i./ha, comparative experiment
Procedure: as §1, with “The example numbers given in the tables relate to the compounds disclosed in the respective documents.” left out

AMARE [15] = test: Pre-emergence herbicidal action; type: in vivo, Amaranthus retroflexus; conditions: scored after 3 weeks
Source text: as §2, with “percent.” for “percent. In the experiments that follow, the herbicidal action of the compounds of the invention and that of the corresponding known racemic compounds closest from WO2012126932 and WO2018202535 were compared under the above-specified conditions by the pre-emergence and post-emergence method. The example numbers given in the tables relate to the compounds disclosed in the respective documents.”

AMARE [16] = test: Post-emergence herbicidal action; type: in vivo, Amaranthus retroflexus; conditions: assessed after about 3 weeks
Procedure: as §1, with “percent.” for “percent. In the experiments that follow, the herbicidal action of the compounds of the invention and that of the corresponding known racemic compounds closest from WO2012126932 and WO2018202535 were compared under the above-specified conditions by the pre-emergence and post-emergence method. The example numbers given in the tables relate to the compounds disclosed in the respective documents.”

MATIN [17] = test: Post-emergence herbicidal action; type: in vivo, Matricaria inodora; conditions: 20 g/ha, assessed after about 3 weeks
Procedure: as §1, with “percent.” for “percent. In the experiments that follow, the herbicidal action of the compounds of the invention and that of the corresponding known racemic compounds closest from WO2012126932 and WO2018202535 were compared under the above-specified conditions by the pre-emergence and post-emergence method. The example numbers given in the tables relate to the compounds disclosed in the respective documents.”

TRZAS = test: Post-emergence damage to crop plants; type: in vivo, Triticum aestiva; conditions: 20 g a.i./ha, comparative experiment
Procedure: as §1

GLXMA = test: Pre-emergence damage to crop plants; type: in vivo, Glycine max; conditions: comparative experiment
Source text: as §2

ECHCG [18] = test: Pre-emergence herbicidal action; type: in vivo, Echinochloa crus-galli; conditions: 80 g/ha, scored after 3 weeks
Source text: as §2, with “percent.” for “percent. In the experiments that follow, the herbicidal action of the compounds of the invention and that of the corresponding known racemic compounds closest from WO2012126932 and WO2018202535 were compared under the above-specified conditions by the pre-emergence and post-emergence method. The example numbers given in the tables relate to the compounds disclosed in the respective documents.”

BRSNW = test: Post-emergence damage to crop plants; type: in vivo, Brassica napus; conditions: 20 g a.i./ha, comparative experiment
Procedure: as §1, with “The example numbers given in the tables relate to the compounds disclosed in the respective documents.” left out

LOLRI [19] = test: Pre-emergence herbicidal action; type: in vivo, Lolium rigidum; conditions: for Herbicidal action against LOLRI: 20 g a.i./ha, comparative experiment
Source text: as §2

DIGSA [20] = test: Pre-emergence herbicidal action; type: in vivo, Digitaria sanguinalis; conditions: scored after 3 weeks
Source text: as §2, with “percent.” for “percent. In the experiments that follow, the herbicidal action of the compounds of the invention and that of the corresponding known racemic compounds closest from WO2012126932 and WO2018202535 were compared under the above-specified conditions by the pre-emergence and post-emergence method. The example numbers given in the tables relate to the compounds disclosed in the respective documents.”

VIOTR = test: Pre-emergence herbicidal action; type: in vivo, Viola tricolor; conditions: scored after 3 weeks
Source text: as §2, with “percent.” for “percent. In the experiments that follow, the herbicidal action of the compounds of the invention and that of the corresponding known racemic compounds closest from WO2012126932 and WO2018202535 were compared under the above-specified conditions by the pre-emergence and post-emergence method. The example numbers given in the tables relate to the compounds disclosed in the respective documents.”

[21] = 20 g a.i./ha, comparative experiment

## Cc1nnc(NC(=O)c2ccc(C(F)(F)F)c([S+](C)[O-])c2Cl)o1 (racemic) [2-360, from WO2012126932, 2-chloro-N-(5-methyl-1,3,4-oxadiazol-2-yl)-3-[(rac)-methylsulfinyl]-4-(trifluoromethyl)benzamide, reference compound]
STEME [1]
  Herbicidal action against STEME: 0%
CYPES [2]
  Herbicidal action against CYPES: 50%
SETVI [3]; 5 g a.i./ha, comparative experiment
  Herbicidal action against SETVI: 80%
VERPE [4]
  Herbicidal action against VERPE: 20%
ALOMY
  Herbicidal action against ALOMY: 30%
AVEFA
  Herbicidal action against AVEFA: 0%
ZEAMX [5]; 320 g a.i./ha
  Herbicidal action against ZEAMX: 60%
ZEAMX [6]
  Damage to ZEAMX: 20%
CYPES [7]
  Herbicidal action against CYPES: 70%
SETVI [8]; [21]
  Herbicidal action against SETVI: 50%
POLCO; 320 g a.i./ha, comparative experiment
  Herbicidal action against POLCO: 20%
STEME [9]; 20 g a.i./ha
  Herbicidal action against STEME: 0%
STEME [9]; 80 g a.i./ha
  Herbicidal action against STEME: 70%
STEME [9]; 320 g a.i./ha
  Herbicidal action against STEME: 70%
MATIN [10]; [21]
  Herbicidal action against MATIN: 70%
VERPE [11]; 20 g a.i./ha
  Herbicidal action against VERPE: 0%
VERPE [11]; 80 g a.i./ha
  Herbicidal action against VERPE: 10%

## Cc1nnc(NC(=O)c2ccc(C(F)(F)F)c([S+]([O-])C3CC3)c2Cl)o1 (stereo in doubt) [Example I-4, 2-chloro-N-(5-methyl-1,3,4-oxadiazol-2-yl)-3-[(S)-cyclopropylsulfinyl]-4-(trifluoromethyl)benzamide]
DIGSA [12]; 5 g/ha
  Post-emergence action against DIGSA: 90%
DIGSA [12]
  Herbicidal action against DIGSA: 100%
DIGSA [12]; 20 g/ha
  Post-emergence action against DIGSA: 100%
SETVI [3]; 5 g/ha
  Post-emergence action against SETVI: 100%
SETVI [3]; 20 g/ha
  Post-emergence action against SETVI: 100%
VERPE [4]
  Herbicidal action against VERPE: 60%
ALOMY
  Herbicidal action against ALOMY: 80%
ALOMY; 20 g/ha
  Pre-emergence action against ALOMY: 80%
ALOMY; 80 g/ha
  Pre-emergence action against ALOMY: 100%
AVEFA
  Herbicidal action against AVEFA: 30%
AVEFA; 80 g/ha, scored after 3 weeks
  Pre-emergence action against AVEFA: 90%
ECHCG [13]
  Post-emergence action against ECHCG: 90%
LOLRI [14]
  Herbicidal action against LOLRI: 60%
AMARE [15]; 20 g/ha
  Pre-emergence action against AMARE: 100%
AMARE [15]; 80 g/ha
  Pre-emergence action against AMARE: 100%
ZEAMX [5]
  Damage to ZEAMX: 50%
ZEAMX [6]
  Damage to ZEAMX: 0%
SETVI [8]; 20 g/ha
  Pre-emergence action against SETVI: 100%
SETVI [8]; 80 g/ha
  Pre-emergence action against SETVI: 100%
AMARE [16]; 5 g/ha
  Post-emergence action against AMARE: 100%
AMARE [16]; 20 g/ha
  Post-emergence action against AMARE: 100%
MATIN [17]
  Post-emergence action against MATIN: 80%
POLCO; 80 g/ha, scored after 3 weeks
  Pre-emergence action against POLCO: 80%
MATIN [10]; 20 g/ha
  Pre-emergence action against MATIN: 80%
MATIN [10]; 80 g/ha
  Pre-emergence action against MATIN: 100%
TRZAS
  Damage to TRZAS: 20%
GLXMA; 20 g a.i./ha
  Damage to GLXMA: 40%
GLXMA; 80 g a.i./ha
  Damage to GLXMA: 80%
ECHCG [18]
  Pre-emergence action against ECHCG: 100%
VERPE [11]; 80 g/ha, scored after 3 weeks
  Pre-emergence action against VERPE: 100%
BRSNW
  Damage to BRSNW: 80%
LOLRI [19]
  Herbicidal action against LOLRI: 50%
LOLRI [19]; 80 g/ha, scored after 3 weeks
  Pre-emergence action against LOLRI: 80%
DIGSA [20]; 20 g/ha
  Pre-emergence action against DIGSA: 100%
DIGSA [20]; 80 g/ha
  Pre-emergence action against DIGSA: 100%
VIOTR; 20 g/ha
  Pre-emergence action against VIOTR: 100%
VIOTR; 80 g/ha
  Pre-emergence action against VIOTR: 100%

## Cc1nnc(NC(=O)c2ccc(C(F)(F)F)c([S+]([O-])C3CC3)c2Cl)o1 (racemic) [Racemate known from WO2012126932, 2-chloro-N-(5-methyl-1,3,4-oxadiazol-2-yl)-3-[(rac)-cyclopropylsulfinyl]-4-(trifluoromethyl)benzamide, reference compound]
DIGSA [12]
  Herbicidal action against DIGSA: 80%
VERPE [4]
  Herbicidal action against VERPE: 40%
ALOMY
  Herbicidal action against ALOMY: 0%
AVEFA
  Herbicidal action against AVEFA: 0%
LOLRI [14]
  Herbicidal action against LOLRI: 30%
ZEAMX [5]
  Damage to ZEAMX: 70%
ZEAMX [6]
  Damage to ZEAMX: 20%
TRZAS
  Damage to TRZAS: 40%
GLXMA; 20 g a.i./ha
  Damage to GLXMA: 60%
GLXMA; 80 g a.i./ha
  Damage to GLXMA: 100%
BRSNW
  Damage to BRSNW: 100%
LOLRI [19]
  Herbicidal action against LOLRI: 0%
